In ChEMBL document CHEMBL3885881, “DrugMatrix”:

Organism: Rattus norvegicus
Test: DrugMatrix - Regimen: Daily Repeat
Assay type: toxicity, organism-based, Sprague-Dawley
Design: regimen Daily Repeat, gender Male, age 6-8 weeks
Settings: in vivo, po, route oral GAVAGE, vehicle 100 % WATER; for ABSOLUTE BASOPHIL / ABSOLUTE EOSINOPHIL / ABSOLUTE LYMPHOCYTE / ABSOLUTE MONOCYTE / ABSOLUTE SEGMENTED NEUTROPHIL / BASOPHIL / EOSINOPHIL / ERYTHROCYTE COUNT / HEMATOCRIT / HEMOGLOBIN / LEUKOCYTE COUNT / LYMPHOCYTE / MEAN CORPUSCULAR HEMOGLOBIN / MEAN CORPUSCULAR HEMOGLOBIN CONCENTRATION / MEAN CORPUSCULAR VOLUME / MONOCYTE / NEUTROPHIL / NUCLEATED RED BLOOD CELLS / PLATELET COUNT: tissue Blood; for ALANINE AMINOTRANSFERASE / ALBUMIN / ALKALINE PHOSPHATASE / ASPARTATE AMINOTRANSFERASE / BLOOD UREA NITROGEN / CARBON DIOXIDE / CHLORIDE / CHOLESTEROL / CREATINE PHOSPHOKINASE / CREATININE / GLUCOSE / LACTATE DEHYDROGENASE / LIPASE / PHOSPHORUS / POTASSIUM / SODIUM / TOTAL BILIRUBIN / TOTAL PROTEIN / URIC ACID: tissue Plasma
[1] = 28 mg/kg, 120 h, dose level Low, time 5 day
[2] = 1500 mg/kg, 72 h, dose level High, time 3 day
[3] = 1500 mg/kg, 120 h, dose level High, time 5 day

Structure (SMILES): CS(=O)(=O)c1ccc([C@@H](O)[C@@H](CO)NC(=O)C(Cl)Cl)cc1 [THIAMPHENICOL]
- ABSOLUTE BASOPHIL [1]: 0 CELLS/uL
- ABSOLUTE EOSINOPHIL [1]: 95.33 CELLS/uL
- ABSOLUTE LYMPHOCYTE [1]: 6576.67 CELLS/uL
- ABSOLUTE MONOCYTE [1]: 0 CELLS/uL
- ABSOLUTE SEGMENTED NEUTROPHIL [1]: 828 CELLS/uL
- BASOPHIL [1]: 0%
- EOSINOPHIL [1]: 1.33%
- ERYTHROCYTE COUNT [1]: 5.62 x10E6/uL
- HEMATOCRIT [1]: 36.03%
- HEMOGLOBIN [1]: 13.5 G/DL
- LEUKOCYTE COUNT [1]: 7.5 x10E3/uL
- LYMPHOCYTE [1]: 87.67%
- MEAN CORPUSCULAR HEMOGLOBIN [1]: 24.03 pg
- MEAN CORPUSCULAR HEMOGLOBIN CONCENTRATION [1]: 37.47 G/DL
- MEAN CORPUSCULAR VOLUME [1]: 64.07 fL
- MONOCYTE [1]: 0%
- NEUTROPHIL [1]: 11%
- NUCLEATED RED BLOOD CELLS [1]: 0 /100WBC
- PLATELET COUNT [1]: 1264 x10E3/uL
- ALANINE AMINOTRANSFERASE [1]: 51 u/L
- ALBUMIN [1]: 4.33 G/DL
- ALKALINE PHOSPHATASE [1]: 379.67 u/L
- ASPARTATE AMINOTRANSFERASE [1]: 78 u/L
- BLOOD UREA NITROGEN [1]: 15 mg/dL
- CARBON DIOXIDE [1]: 28 mmol/L
- CHLORIDE [1]: 101 MEQ/L
- CHOLESTEROL [1]: 82.67 mg/dL
- CREATINE PHOSPHOKINASE [1]: 219 u/L
- CREATININE [1]: 0.19 mg/dL
- GLUCOSE [1]: 146.67 mg/dL
- LACTATE DEHYDROGENASE [1]: 121 u/L
- LIPASE [1]: 8.33 u/L
- PHOSPHORUS [1]: 12.2 mg/dL
- POTASSIUM [1]: 5.86 MEQ/L
- SODIUM [1]: 148.13 MEQ/L
- TOTAL BILIRUBIN [1]: 0.23 mg/dL
- TOTAL PROTEIN [1]: 6.37 G/DL
- URIC ACID [1]: 1.07 mg/dL
- ABSOLUTE BASOPHIL [2]: 0 CELLS/uL
- ABSOLUTE EOSINOPHIL [2]: 242.33 CELLS/uL
- ABSOLUTE LYMPHOCYTE [2]: 11370.67 CELLS/uL
- ABSOLUTE MONOCYTE [2]: 0 CELLS/uL
- ABSOLUTE SEGMENTED NEUTROPHIL [2]: 1353.67 CELLS/uL
- BASOPHIL [2]: 0%
- EOSINOPHIL [2]: 1.67%
- ERYTHROCYTE COUNT [2]: 4.88 x10E6/uL
- HEMATOCRIT [2]: 32.03%
- HEMOGLOBIN [2]: 12.37 G/DL
- LEUKOCYTE COUNT [2]: 12.97 x10E3/uL
- LYMPHOCYTE [2]: 87.67%
- MEAN CORPUSCULAR HEMOGLOBIN [2]: 25.37 pg
- MEAN CORPUSCULAR HEMOGLOBIN CONCENTRATION [2]: 38.6 G/DL
- MEAN CORPUSCULAR VOLUME [2]: 65.7 fL
- MONOCYTE [2]: 0%
- NEUTROPHIL [2]: 10.67%
- NUCLEATED RED BLOOD CELLS [2]: 0 /100WBC
- PLATELET COUNT [2]: 1202.33 x10E3/uL
- ALANINE AMINOTRANSFERASE [2]: 42.67 u/L
- ALBUMIN [2]: 4.27 G/DL
- ALKALINE PHOSPHATASE [2]: 298 u/L
- ASPARTATE AMINOTRANSFERASE [2]: 82 u/L
- BLOOD UREA NITROGEN [2]: 18 mg/dL
- CARBON DIOXIDE [2]: 24.33 mmol/L
- CHLORIDE [2]: 110.67 MEQ/L
- CHOLESTEROL [2]: 82.67 mg/dL
- CREATINE PHOSPHOKINASE [2]: 343.67 u/L
- CREATININE [2]: 0.16 mg/dL
- GLUCOSE [2]: 201 mg/dL
- LACTATE DEHYDROGENASE [2]: 99 u/L
- LIPASE [2]: 8.33 u/L
- PHOSPHORUS [2]: 12 mg/dL
- POTASSIUM [2]: 5.55 MEQ/L
- SODIUM [2]: 148.1 MEQ/L
- TOTAL BILIRUBIN [2]: 0.1 mg/dL
- TOTAL PROTEIN [2]: 5.8 G/DL
- URIC ACID [2]: 2.17 mg/dL
- ABSOLUTE BASOPHIL [3]: 0 CELLS/uL
- ABSOLUTE EOSINOPHIL [3]: 0 CELLS/uL
- ABSOLUTE LYMPHOCYTE [3]: 10293 CELLS/uL
- ABSOLUTE MONOCYTE [3]: 39 CELLS/uL
- ABSOLUTE SEGMENTED NEUTROPHIL [3]: 901.33 CELLS/uL
- BASOPHIL [3]: 0%
- EOSINOPHIL [3]: 0%
- ERYTHROCYTE COUNT [3]: 5.44 x10E6/uL
- HEMATOCRIT [3]: 34.1%
- HEMOGLOBIN [3]: 13.07 G/DL
- LEUKOCYTE COUNT [3]: 11.23 x10E3/uL
- LYMPHOCYTE [3]: 91.67%
- MEAN CORPUSCULAR HEMOGLOBIN [3]: 24.03 pg
- MEAN CORPUSCULAR HEMOGLOBIN CONCENTRATION [3]: 38.33 G/DL
- MEAN CORPUSCULAR VOLUME [3]: 62.67 fL
- MONOCYTE [3]: 0.33%
- NEUTROPHIL [3]: 8%
- NUCLEATED RED BLOOD CELLS [3]: 0 /100WBC
- PLATELET COUNT [3]: 1190 x10E3/uL
- ALANINE AMINOTRANSFERASE [3]: 44.33 u/L
- ALBUMIN [3]: 4.33 G/DL
- ALKALINE PHOSPHATASE [3]: 313.67 u/L
- ASPARTATE AMINOTRANSFERASE [3]: 87 u/L
- BLOOD UREA NITROGEN [3]: 21.33 mg/dL
- CARBON DIOXIDE [3]: 24.33 mmol/L
- CHLORIDE [3]: 103 MEQ/L
- CHOLESTEROL [3]: 75.67 mg/dL
- CREATINE PHOSPHOKINASE [3]: 564.67 u/L
- CREATININE [3]: 0.21 mg/dL
- GLUCOSE [3]: 159 mg/dL
- LACTATE DEHYDROGENASE [3]: 210 u/L
- LIPASE [3]: 8.33 u/L
- PHOSPHORUS [3]: 11.87 mg/dL
- POTASSIUM [3]: 6.38 MEQ/L
- SODIUM [3]: 144.57 MEQ/L
- TOTAL BILIRUBIN [3]: 0.13 mg/dL
- TOTAL PROTEIN [3]: 5.97 G/DL
- URIC ACID [3]: 1.67 mg/dL
